Tests used:
p300 HAT [1] = molecular target: T1, p300 HAT (Homo sapiens, UniProt Q09472, DEL1529-1560/M1652G); experiment: coupled spectrophotometric p300 HAT assay; type: biochemical; conditions: for % inhibition in initial screen: compounds at 100 μM
T1 construct: A variant of the HAT domain of p300 (residues 1287 to 1652) was expressed as a fusion; a C-terminal peptide corresponding to residues 1653-1666 of p300; made in house; host or cells: E. coli BL21(RIL)-DE3; C-terminal peptide by solid phase synthesis
T1 sequence (Q09472 with tags, fused parts or gaps DEL1529-1560/M1652G limits assumed): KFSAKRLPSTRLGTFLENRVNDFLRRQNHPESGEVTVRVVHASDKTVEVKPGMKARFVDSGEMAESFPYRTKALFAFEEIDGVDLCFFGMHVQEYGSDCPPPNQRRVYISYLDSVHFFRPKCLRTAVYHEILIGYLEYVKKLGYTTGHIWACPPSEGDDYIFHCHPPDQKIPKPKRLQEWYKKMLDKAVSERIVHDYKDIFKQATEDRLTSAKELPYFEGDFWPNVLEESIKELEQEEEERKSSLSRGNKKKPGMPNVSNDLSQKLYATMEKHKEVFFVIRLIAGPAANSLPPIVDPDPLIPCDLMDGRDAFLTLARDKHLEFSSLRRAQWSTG
Protocol: After completing the computational docking screen, the top 194 inhibitors were tested in a convenient spectrophotometric assay as described in Kim et al., Anal. Biochem. 280, 308 (2000). In the coupled spectrophotometric assay, the acetyltransferase reaction product CoASH becomes a substrate for alpha-ketoglutarate dehydrogenase, which converts NAD to NADH, resulting in an increase of UV absorbance at 340 nm. Screening conditions for these p300 HAT assays included substrate concentrations of 200 μM histone H4-15 peptide and 50 μM acetyl-CoA, and potential small molecule inhibitors tested at 100 μM. […] To distinguish inhibitory effects related to blockade of coupling enzyme rather than p300, assays were repeated using increased (2-fold) alpha-ketoglutarate dehydrogenase. […] The remaining compounds were then assessed in a protein aggregation-related inhibition assay as described in Feng et al., Nat. Chem. Biol. 1, 146 (2005). […] In this radioactive p300 HAT assay, ^14C transfer from ^14C-acetyl-CoA into peptide substrate is directly measured using Tris-Tricine SDSPAGE and phosphorimage analysis.
The top 194 p300 HAT inhibitor candidates identified by VLS were screened using a coupled spectrophotometric assay. In this assay, CoASH produced by the p300 reaction is used by α-ketoglutarate dehydrogenase (α-KGDH) to produce NADH, which can be monitored spectrophotometrically at 340 nm. Reactions were performed at 30° C. in […] HEPES, pH 7.9, and contained 200 μM H4-15, 200 μM TPP, 5 mM MgCl 2, 1 mM DTT, 50 μg/mL BSA, 200 μM NAD, 2.4 mM α-ketoglutarate, 200 μM acetyl-CoA, 0.1 units α-KGDH, and 100 nM p300. DMSO was kept at a constant 3.3%, and candidate compounds were screened at 100 μM. Reaction mixtures were incubated at 30° C. for 10 min prior to initiation. Reactions were initiated with addition of H4-15 and followed over the linear portion of the progress curve, which provides the initial velocity via linear regression. Percent inhibition was determined by comparison with velocity without candidate added. […] To ensure that compounds were not inhibiting α-KGDH instead of p300, compounds were assayed with 0.2 units of α-KGDH, two times the amount used in the initial screen. To ensure that compounds were not inhibiting through nonspecific aggregation, compounds were assayed in the presence of 0.01% Triton X-100.

p300 HAT [2] = molecular target: T1, p300 HAT; experiment: direct radioactive p300 HAT assay (14C-acetyl-CoA transfer to H4-15); type: biochemical
Protocol: In this assay, production of ^14C-labeled Ac-H4-15 is monitored electrophoretically. Reactions were performed in 20 mM HEPES, pH 7.9, and contained 5 mM DTT, 80 μM EDTA, 40 μg/mL BSA, 100 μM H4-15, and 5 nM p300. […] Reactions were incubated at 30° C. for 10 minutes, initiated with addition of a 1:1 mixture of 12 C-acetyl-CoA and 14 C-acetyl-CoA to a final concentration of 20 μM, and allowed to run for 10 min at 30° C. Reactions are then quenched with addition of 14% SDS (w/v). Turnover was kept below 10%. All compounds were screened in duplicate. Samples were then loaded onto a 16% Tris-Tricine gel along with a BSA standard and run at 140 V for 90 minutes. Gels were washed and dried, and exposed in a PhosphorImager cassette for ˜2 days. Bands corresponding to Ac-H4-15 were then quantified using ImageQuant.
Reactions were performed in 20 mM HEPES, pH 7.9, and contained 5 mM DTT, 80 μM EDTA, 40 μg/mL BSA, 100 μM […], and 5 nM p300. Putative inhibitors were added over a range of concentrations, with DMSO concentration kept constant (<5%). Reactions were incubated at 30° C. for 10 minutes, then initiated with addition of a 1:1 mixture of ^12C-acetyl-CoA and ^14C-acetyl-CoA to 20 μM. After […] at 30° C., reactions were quenched with 14% SDS (w/v). All concentrations were screened in duplicate. Gels were run, washed, dried, and exposed to a PhosphorImager plate as described above, and production of Ac-H4-15 quantified. Data were fit to the following equation to obtain IC50s. […]

In the case of `O=C(O)c1ccc(Br)c(S(=O)(=O)Nc2ccc(NC(=O)c3ccccc3)cc2)c1` [Compound 5913665], the “% inhibition in initial screen” value (p300 HAT [1]) is reported as 0.0%.
In the case of `O=C(O)C1CCCN(S(=O)(=O)c2cccs2)C1` (stereo not shown) [Compound 7195131], the “% inhibition in initial screen” value (p300 HAT [1]) is reported as 0.0%.
In the case of `O=C(O)CCSCC(=O)c1ccc(NS(=O)(=O)c2ccccc2)cc1` [Compound 7112743], the “% inhibition in initial screen” value (p300 HAT [1]) is reported as 0.0%.
In the case of `CC1=NN(CCC(=O)O)C(=O)C1=Cc1ccc(-c2cc(C)c(C)cc2[N+](=O)[O-])o1` [Compound 6k, 3-(4,5-dihydro-3-methyl-4-((5-(4,5-dimethyl-2-nitrophenyl)furan-2-yl)methylene)-5-oxopyrazol-1-yl)propanoic acid], the “p300 HAT inhibition, result in words (analogs compared with C646)” value (p300 HAT [2]) is reported as “cannot successfully replace the benzoate ring of C646 and still retain p300 inhibitory potency” and the melting point is reported as 189 to 190 °C.
In the case of `COc1cccc(CNC(=O)C(=O)Nc2ccc(C(C)C)cc2)c1` [Compound 7076620], the “% inhibition in initial screen” value (p300 HAT [1]) is reported as 0.0%.
In the case of `Cc1cc(-c2ccc(C(=O)c3c(C)nn(-c4ccc(C(=O)O)cc4)c3O)o2)c([N+](=O)[O-])cc1C` [Compound 6q], the “weakening of p300 inhibitory potency compared with C646 (relative IC50)” value (p300 HAT [2]; range of concentrations) is reported as 6 fold.
With `Cc1ccc(C(=O)Nc2cccc([N+](=O)[O-])c2)cc1S(=O)(=O)Nc1cccc(C(=O)O)c1` [Compound 5913514] the “% inhibition in initial screen” value (p300 HAT [1]) was 0.0%.
In the case of `NC(=O)c1ccccc1NC(=O)CCC(=O)O` [Compound 5317891], the “% inhibition in initial screen” value (p300 HAT [1]) is reported as 0.0%.
With `COC(=O)c1cc(C)c(C)cc1-c1ccc(/C=C2/CC(=O)N(c3ccc(C(=O)O)cc3)C2=O)o1` [Compound 6r, 2-{5-[1-(4-Carboxy-phenyl)-2,5-dioxo-pyrrolidin-3-ylidenemethyl]-furan-2-yl}-4,5-dimethyl-benzoic acid methyl ester] the “p300 HAT inhibition, result in words (analogs compared with C646)” value (p300 HAT [2]) was “retains potency for p300 inhibition” and the melting point was 290 to 291 °C.
With `CC1=NN(c2cccc(C(=O)O)c2)C(=O)C1=Cc1ccc(-c2cc(C)c(C)cc2[N+](=O)[O-])o1` [Compound 6e, 3-(4,5-dihydro-3-methyl-4-((5-(4,5-dimethyl-2-nitrophenyl)furan-2-yl)methylene)-5-oxopyrazol-1-yl)benzoic acid] the “p300 HAT inhibition, result in words (analogs compared with C646)” value (p300 HAT [2]) was “well tolerated” and the melting point was 260 to 262 °C.
In the case of `COc1cccc(NC(=O)C(=O)NCCc2ccc(OC)c(OC)c2)c1` [Compound 5574003], the “% inhibition in initial screen” value (p300 HAT [1]) is reported as 0.0%.
In the case of `O=C(O)CCSc1nc2ccccc2c(=O)[nH]1` [Compound 5485989], the “% inhibition in initial screen” value (p300 HAT [1]) is reported as 0.0%.
For `C=CCn1c(SCC(=O)O)nc2sc3c(c2c1=O)CCCC3` [Compound 5915918], the “% inhibition in initial screen” value (p300 HAT [1]) was 0.0%.
With `CC1=NN(c2ccc(C(=O)O)cc2)C(=O)/C1=C\c1ccc(-c2cc(C)c(C)cc2C#N)o1` [Compound 6o, 4-(4,5-dihydro-4-((5-(4,5-dimethyl-2-benzonitrile)furan-2-yl)methylene)-3-methyl-5-oxopyrazol-1-yl)-benzoic acid] the “p300 HAT inhibition, result in words (analogs compared with C646)” value (p300 HAT [2]) was “well tolerated” and the melting point was 295 to 297 °C.
In the case of `COc1ccc(C(CC(=O)O)c2ccc(OC)c(OC)c2)cc1OC` [Compound 6971425], the “% inhibition in initial screen” value (p300 HAT [1]) is reported as 0.0%.
For `COC(=O)c1cccc(N2N=C(C)/C(=C/c3ccc(-c4cc(C)c(C)cc4[N+](=O)[O-])o3)C2=O)c1` [Compound 6i, Methyl 3-(4,5-dihydro-3-methyl-4-((5-(4,5-dimethyl-2-nitrophenyl)furan-2-yl)methylene)-5-oxopyrazol-1-yl)benzoate], the “p300 HAT inhibition, result in words (analogs compared with C646)” value (p300 HAT [2]) was “well tolerated” and the melting point was 205 to 207 °C.
`CCOC(=O)c1cc(C)c(C)cc1-c1ccc(/C=C2\C(=O)N(c3ccc(C(=O)O)cc3)N=C2C)o1` [Compound 6n, 4-(4,5-dihydro-4-((5-(4,5-dimethyl-2-ethylbenzoate)furan-2-yl)methylene)-3-methyl-5-oxopyrazol-1-yl)benzoic acid] gave a melting point of 241 to 243 °C.
For `COc1ccc(S(=O)(=O)N2CCCC(C(=O)O)C2)cc1` (stereo not shown) [Compound 7185124], the “% inhibition in initial screen” value (p300 HAT [1]) was 0.0%.
In the case of `CC(=O)c1ccc(NS(=O)(=O)c2cccc(C(=O)Nc3cccc(C(=O)O)c3)c2)cc1` [Compound 5917216], the “% inhibition in initial screen” value (p300 HAT [1]) is reported as 38.6%.
For `COc1ccc(CCNC(=O)c2ccccc2[N+](=O)[O-])cc1OC` [Compound 5693758], the “% inhibition in initial screen” value (p300 HAT [1]) was 0.0%.
Compound `CC1=NN(c2ccc(C(N)=O)c(Cl)c2)C(=O)/C1=C\c1ccc(-c2cc(C)c(C)cc2[N+](=O)[O-])o1` [Compound 6b, 4-(4,5-dihydro-3-methyl-4-((5-(4,5-dimethyl-2-nitrophenyl)furan-2-yl)methylene)-5-oxopyrazol-1-yl)-2-chloro-benzamide] has a melting point of 267 to 269 °C.
With `Cc1cc(C)c(S(=O)(=O)N2CCCC(C(=O)O)C2)c(C)c1` (stereo not shown) [Compound 7188864] the “% inhibition in initial screen” value (p300 HAT [1]) was 0.0%.
`CC1=NN(c2ccc(S(N)(=O)=O)cc2)C(=O)/C1=C\c1ccc(-c2cc(C)c(C)cc2[N+](=O)[O-])o1` [Compound 6g] gave a melting point of 152 to 154 °C.
For `O=C(CSC1CC(=O)N(c2ccc(C(=O)O)cc2)C1=O)Nc1ccc(F)cc1` (stereo not shown) [Compound 5310308], the “% inhibition in initial screen” value (p300 HAT [1]) was 0.0%.
In the case of `CC1=NN(c2ccc(C(=O)O)cc2)C(=O)/C1=C\c1ccc(-c2cc(C)c(C)cc2CO)o1` [Compound 6l, 4-(4,5-dihydro-4-((5-(2-(hydroxymethyl)-4,5-dimethylphenyl)-furan-2-yl)methylene)-3-methyl-5-oxopyrazol-1-yl)benzoic acid], the “p300 HAT inhibition, result in words (analogs compared with C646)” value (p300 HAT [2]) is reported as “substantial reduction in potency” and the melting point is reported as 209 to 211 °C.
In the case of `O=C(O)CCC(=O)Nc1ccc(-c2nc3cc(Cl)ccc3o2)cc1` [Compound 6786461], the “% inhibition with 2x coupling enz” value (p300 HAT [1]; 0.2 units α-KGDH (two times)) is reported as 100.0%, the “% inhibition with .01% Triton X-100” value (p300 HAT [1]; aggregation control, 0.01% Triton X-100) is reported as 58.2% and the “% inhibition in initial screen” value (p300 HAT [1]) is reported as 66.6%. The “% inhibition at 25 uM in radioactive assay” value (p300 HAT [2]; 25 uM) was 0.0%.
In the case of `COc1ccc(N2C(=O)CC(SCC(=O)O)C2=O)cc1` (stereo not shown) [Compound 5109125], the “% inhibition in initial screen” value (p300 HAT [1]) is reported as 0.0%.
For `Cc1nc(=O)c(-c2ccccc2)c(C)n1-c1ccccc1C(=O)O` [Compound 7261568], the “% inhibition in initial screen” value (p300 HAT [1]) was 0.0%.
In the case of `CC1=NN(c2ccc(S(=O)(=O)O)cc2)C(=O)C1=Cc1ccc(-c2cc(C)c(C)cc2[N+](=O)[O-])o1` [Compound 6f], the “p300 HAT inhibition, result in words (analogs compared with C646)” value (p300 HAT [2]) is reported as “well tolerated”.
With `O=C(O)c1cccc(NC(=O)c2cc(S(=O)(=O)Nc3cccc([N+](=O)[O-])c3)ccc2Cl)c1` [Compound 5915900] the “% inhibition in initial screen” value (p300 HAT [1]) was 0.0%.
In the case of `Cc1nc(SCc2ccccc2)[nH]c(=O)c1CC(=O)O` [Compound 6658754], the “% inhibition in initial screen” value (p300 HAT [1]) is reported as 0.0%.

From US9005670B2, “Use of histone acetyltransferase inhibitors as novel anti-cancer therapies” (The Johns Hopkins University, priority 2010, dated 2015)
